Results taken from patent publication US20250163056A1, “NONMUSCLE MYOSIN II INHIBITORS” (The University of Florida Research Foundation, Inc., priority 2018, published 2025).

What was measured:
[1] = target: Rabbit skeletal myosin; test: Skeletal muscle myosin II actin-activated ATPase assay; type: biochemical; conditions: 20 nM skeletal muscle myosin II; read-out: SKMMII KI
Method in brief: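 Inhibitory constants come from a quadratic one-site fit of 16-point, triplicate dose-response data, highest compound concentration 50 uM. Rates are slopes of NADH fluorescence decline over 30 min, coupling ATP turnover of 20 nM rabbit skeletal myosin II with 10 μM actin and 1 mM ATP via PK/LDH, pH 7.0, 25 °C.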

[2] = Photostability, percentage remaining undegraded under illumination or in the dark; conditions: for Photostability 4 hours: percentage remaining undegraded after 4 hours illumination; for Photostability 24 hours: percentage remaining undegraded after 24 hours illumination; for Photostability Dark (24 h): percentage remaining undegraded in the dark
[3] = target: Bovine cardiac myosin (Bos taurus (Bovine), UniProt Q9BE39); test: Cardiac muscle myosin II actin-activated ATPase assay (NADH-coupled); type: biochemical; set-up: key to Ratio CMMII:NMII Ki/EC50: NMII-sel: no Ki value for cardiac myosin II could be determined; the compounds had no detectable inhibitory properties versus the cardiac myosin II; conditions: for Ratio CMMII:NMII Ki/EC50: cardiac myosin II Ki over nonmuscle myosin II EC50; for Ki: 300 nM cardiac myosin, 10 μM actin, 25° C., read-out: CMMII KI
Method in brief: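 Inhibitory constants came from a quadratic one-to-one binding fit of 16-point dose-responses (highest final 50 uM, triplicate). Rates were NADH-calibrated fluorescence slopes over 30 min at 25° C, with 300 nM bovine cardiac myosin, 10 μM actin and 1 mM ATP coupled through PK/LDH in pH 7.0 MOPS buffer.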

Sequence of Bovine cardiac myosin (Q9BE39 whole entry): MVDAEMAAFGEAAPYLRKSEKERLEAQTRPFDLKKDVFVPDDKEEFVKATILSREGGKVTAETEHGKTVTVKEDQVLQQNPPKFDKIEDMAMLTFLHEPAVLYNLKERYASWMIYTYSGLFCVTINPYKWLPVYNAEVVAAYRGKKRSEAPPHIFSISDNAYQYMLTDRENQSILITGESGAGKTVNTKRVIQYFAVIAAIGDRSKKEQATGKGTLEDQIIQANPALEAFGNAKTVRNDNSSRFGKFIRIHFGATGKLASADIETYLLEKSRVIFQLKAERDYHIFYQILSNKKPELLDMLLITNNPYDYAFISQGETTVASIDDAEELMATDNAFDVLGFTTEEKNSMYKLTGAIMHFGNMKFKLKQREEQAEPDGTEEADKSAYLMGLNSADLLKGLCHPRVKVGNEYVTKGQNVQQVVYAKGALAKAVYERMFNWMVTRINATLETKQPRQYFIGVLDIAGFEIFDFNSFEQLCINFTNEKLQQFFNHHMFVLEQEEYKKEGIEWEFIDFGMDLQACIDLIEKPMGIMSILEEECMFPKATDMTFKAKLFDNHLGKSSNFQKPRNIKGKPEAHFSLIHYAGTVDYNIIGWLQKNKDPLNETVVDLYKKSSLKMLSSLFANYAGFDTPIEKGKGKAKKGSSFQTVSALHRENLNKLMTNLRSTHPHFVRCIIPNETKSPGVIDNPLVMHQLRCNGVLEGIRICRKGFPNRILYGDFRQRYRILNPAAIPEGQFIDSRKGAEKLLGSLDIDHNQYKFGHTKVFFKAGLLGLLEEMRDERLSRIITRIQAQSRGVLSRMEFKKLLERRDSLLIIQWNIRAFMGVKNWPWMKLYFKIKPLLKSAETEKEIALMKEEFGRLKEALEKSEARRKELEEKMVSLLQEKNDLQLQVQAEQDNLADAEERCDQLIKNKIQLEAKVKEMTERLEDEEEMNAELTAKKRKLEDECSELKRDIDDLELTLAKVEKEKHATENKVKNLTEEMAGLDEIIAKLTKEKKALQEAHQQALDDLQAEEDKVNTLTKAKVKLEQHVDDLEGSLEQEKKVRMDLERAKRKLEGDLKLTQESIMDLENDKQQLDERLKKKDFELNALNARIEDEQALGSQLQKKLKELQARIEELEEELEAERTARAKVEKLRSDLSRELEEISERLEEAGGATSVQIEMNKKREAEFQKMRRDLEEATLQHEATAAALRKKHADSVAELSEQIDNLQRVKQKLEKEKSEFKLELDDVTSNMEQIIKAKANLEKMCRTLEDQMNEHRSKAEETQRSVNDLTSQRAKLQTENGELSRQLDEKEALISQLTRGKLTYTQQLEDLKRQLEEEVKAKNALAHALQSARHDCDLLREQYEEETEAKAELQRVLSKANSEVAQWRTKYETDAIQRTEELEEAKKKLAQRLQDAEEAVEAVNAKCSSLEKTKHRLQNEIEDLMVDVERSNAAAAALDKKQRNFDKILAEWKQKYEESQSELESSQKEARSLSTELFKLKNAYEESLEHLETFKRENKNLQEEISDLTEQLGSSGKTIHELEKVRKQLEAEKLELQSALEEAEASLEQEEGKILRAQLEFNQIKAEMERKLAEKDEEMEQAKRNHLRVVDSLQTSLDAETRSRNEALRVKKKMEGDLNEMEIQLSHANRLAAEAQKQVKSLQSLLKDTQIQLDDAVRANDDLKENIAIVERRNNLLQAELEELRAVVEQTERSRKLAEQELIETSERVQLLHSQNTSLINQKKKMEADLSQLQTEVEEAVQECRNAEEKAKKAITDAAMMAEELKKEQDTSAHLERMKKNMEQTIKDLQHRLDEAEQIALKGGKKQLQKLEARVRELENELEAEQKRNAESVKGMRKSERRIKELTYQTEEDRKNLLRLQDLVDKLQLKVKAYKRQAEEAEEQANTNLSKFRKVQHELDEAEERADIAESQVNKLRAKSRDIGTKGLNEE
Sequence of Bovine cardiac myosin (P85100 whole entry partner): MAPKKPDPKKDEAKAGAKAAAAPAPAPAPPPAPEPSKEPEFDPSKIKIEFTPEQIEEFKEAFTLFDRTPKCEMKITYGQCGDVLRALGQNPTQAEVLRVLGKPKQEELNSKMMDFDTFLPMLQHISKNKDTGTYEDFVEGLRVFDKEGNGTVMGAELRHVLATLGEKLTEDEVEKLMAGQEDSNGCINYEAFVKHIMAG
Sequence of Bovine cardiac myosin (Q3SZE5 whole entry partner): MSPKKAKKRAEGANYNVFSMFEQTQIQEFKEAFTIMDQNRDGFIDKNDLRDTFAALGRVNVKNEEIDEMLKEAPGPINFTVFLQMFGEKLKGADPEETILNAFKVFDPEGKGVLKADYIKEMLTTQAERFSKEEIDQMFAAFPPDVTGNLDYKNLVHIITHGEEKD

COc1ccc2cc(N3CC[C@@]4(O)C(=O)c5cc(C)c(C)cc5N=C34)ccc2n1 [BPN-0027250]
Ki [1]: 1 µM
Photostability 4 hours [2]: 45.8%
Photostability 24 hours [2]: 2.7%
Photostability Dark (24 h) [2]: 70.1%
Ratio CMMII:NMII Ki/EC50 [3]: NMII-sel

COc1ccc2cc(N3CC[C@@]4(O)C(=O)c5cc(C)ccc5N=C34)ccc2n1 [BPN-0027255]
Ki [1]: 0.8 µM
Photostability 4 hours [2]: 82.4%
Photostability 24 hours [2]: 42.2%
Photostability Dark (24 h) [2]: 98.3%
Ratio CMMII:NMII Ki/EC50 [3]: NMII-sel

Cc1cc2c(s1)N=C1N(c3ccc(C#N)c(Cl)c3)CC[C@@]1(O)C2=O [BPN-0027257]
Ki [1]: 4.2 µM
Photostability 4 hours [2]: 97.0%
Photostability 24 hours [2]: 78.0%
Photostability Dark (24 h) [2]: 97.4%
Ki [3]: 40 µM
Ratio CMMII:NMII Ki/EC50 [3]: 6.8

Cc1ccc2c(c1)C(=O)[C@]1(O)CCN(c3ccc4nc(C)ccc4c3)C1=N2 [BPN-0027289]
Ki [1]: 1 µM
Photostability 4 hours [2]: 91.9%
Photostability 24 hours [2]: 26.3%
Photostability Dark (24 h) [2]: 97.0%
Ki [3]: 50 µM
Ratio CMMII:NMII Ki/EC50 [3]: 29.4

Cc1ccc2c(c1)C(=O)[C@]1(O)CCN(c3ccc4nccnc4c3)C1=N2 [BPN-0027330]
Ki [1]: 4.2 µM
Photostability 4 hours [2]: 92.7%
Photostability 24 hours [2]: 64.6%
Photostability Dark (24 h) [2]: >99%
Ki [3]: 80 µM
Ratio CMMII:NMII Ki/EC50 [3]: 8.0

Cc1cc(N2CC[C@@]3(O)C(=O)c4cc(C)c(C(F)(F)F)cc4N=C23)on1 [BPN-0027346]
Ki [1]: 2 µM
Photostability 4 hours [2]: 97.7%
Photostability 24 hours [2]: 98.7%
Photostability Dark (24 h) [2]: 98.1%
Ki [3]: 33 µM
Ratio CMMII:NMII Ki/EC50 [3]: 6.9

Cc1ccc2c(c1)C(=O)[C@]1(O)CCN(c3ccc4c(C)noc4c3)C1=N2 [BPN-0027374]
Ki [1]: 0.82 µM
Photostability 4 hours [2]: 96.9%
Photostability 24 hours [2]: 86.4%
Photostability Dark (24 h) [2]: >99%
Ratio CMMII:NMII Ki/EC50 [3]: NMII-sel

Cc1sc2c(c1C)C(=O)[C@]1(O)CCN(c3ccc4ncccc4c3)C1=N2 [BPN-0027376]
Ki [1]: 6.7 µM
Photostability 4 hours [2]: 90.4%
Photostability 24 hours [2]: 2.8%
Photostability Dark (24 h) [2]: 97.0%
Ki [3]: 46 µM
Ratio CMMII:NMII Ki/EC50 [3]: 7.8

Cc1ccc2c(c1)C(=O)[C@]1(O)CCN(c3ccc4nc(C#N)ccc4c3)C1=N2 [BPN-0027393]
Ki [1]: 3.5 µM
Photostability 4 hours [2]: 95.2%
Photostability 24 hours [2]: 83.9%
Photostability Dark (24 h) [2]: 97.5%
Ki [3]: 30 µM
Ratio CMMII:NMII Ki/EC50 [3]: 5.8

Cc1ccc2c(c1)C(=O)[C@]1(O)CCN(c3ccc4nsnc4c3)C1=N2 [BPN-0027394]
Ki [1]: 1.1 µM
Photostability 4 hours [2]: 92.2%
Photostability 24 hours [2]: 57.2%
Photostability Dark (24 h) [2]: 98.7%
Ki [3]: 14 µM
Ratio CMMII:NMII Ki/EC50 [3]: 3.4

Cc1ccc2c(c1)C(=O)[C@]1(O)CCN(c3ccn4nccc4c3)C1=N2 [BPN-0027396]
Ki [1]: 1.1 µM
Photostability 4 hours [2]: 85.5%
Photostability 24 hours [2]: 23.5%
Photostability Dark (24 h) [2]: >99%
Ki [3]: 9.5 µM
Ratio CMMII:NMII Ki/EC50 [3]: 5.3

Cc1ccc2c(c1)C(=O)[C@]1(O)CCN(c3ccc4cncn4c3)C1=N2 [BPN-0027406]
Ki [1]: 7.5 µM
Photostability 4 hours [2]: 75.7%
Photostability 24 hours [2]: 1.6%
Photostability Dark (24 h) [2]: >99%
Ki [3]: 200 µM
Ratio CMMII:NMII Ki/EC50 [3]: 3.8

Cc1ccc2c(c1)C(=O)[C@]1(O)CCN(c3cnc4sccc4c3)C1=N2 [BPN-0027410]
Ki [1]: 1.6 µM
Photostability 4 hours [2]: 91.5%
Photostability 24 hours [2]: 41.8%
Photostability Dark (24 h) [2]: >99%
Ki [3]: 25 µM
Ratio CMMII:NMII Ki/EC50 [3]: 7.4

Cc1ccc2c(c1)C(=O)[C@]1(O)CCN(c3ccc4sc(C)nc4c3)C1=N2 [BPN-0027411]
Ki [1]: 1.1 µM
Photostability 4 hours [2]: 81.8%
Photostability 24 hours [2]: 6.4%
Photostability Dark (24 h) [2]: 98.8%
Ki [3]: 51 µM
Ratio CMMII:NMII Ki/EC50 [3]: 8.1

Cc1ccc2c(c1)C(=O)[C@]1(O)CCN(c3ccc4c(c3)OCCN4)C1=N2 [BPN-0027412]
Ki [1]: 2.7 µM
Photostability 4 hours [2]: 90.8%
Photostability 24 hours [2]: 67.7%
Photostability Dark (24 h) [2]: 95.5%
Ki [3]: 21 µM
Ratio CMMII:NMII Ki/EC50 [3]: 3.6

Cc1ccc2c(c1)C(=O)[C@]1(O)CCN(c3ccn4ncnc4c3)C1=N2 [BPN-0027441]
Ki [1]: 12 µM
Photostability 4 hours [2]: 97.2%
Photostability 24 hours [2]: 71.4%
Photostability Dark (24 h) [2]: 91.8%
Ki [3]: 230 µM
Ratio CMMII:NMII Ki/EC50 [3]: 4.6

Cc1ccc2c(c1)C(=O)[C@]1(O)CCN(c3cc4ncccc4s3)C1=N2 [BPN-0027468]
Ki [1]: 1.2 µM
Photostability 4 hours [2]: 83.3%
Photostability 24 hours [2]: 77.5%
Photostability Dark (24 h) [2]: 98.3%
Ratio CMMII:NMII Ki/EC50 [3]: NMII-sel

Cc1ccc2c(c1)C(=O)[C@]1(O)CCN(c3cc4cccnc4s3)C1=N2 [BPN-0027469]
Ki [1]: 0.68 µM
Photostability 4 hours [2]: 58.8%
Photostability 24 hours [2]: 44.3%
Photostability Dark (24 h) [2]: >99%
Ratio CMMII:NMII Ki/EC50 [3]: NMII-sel

Cc1cc2c(cc1C)C(=O)[C@]1(O)CCN(c3ccn4nccc4c3)C1=N2 [BPN-0027488]
Ki [1]: 0.9 µM
Photostability 4 hours [2]: 49.4%
Photostability 24 hours [2]: 20.0%
Photostability Dark (24 h) [2]: 96.4%
Ratio CMMII:NMII Ki/EC50 [3]: NMII-sel

Cc1cc2c(cc1C)C(=O)[C@]1(O)CCN(c3cnc4sccc4c3)C1=N2 [BPN-0027489]
Ki [1]: 0.94 µM
Photostability 4 hours [2]: 76.1%
Photostability 24 hours [2]: 8.5%
Photostability Dark (24 h) [2]: >99%
Ki [3]: 26 µM
Ratio CMMII:NMII Ki/EC50 [3]: 33.3

Cc1ccc2cc(N3CC[C@@]4(O)C(=O)c5cc(C)c(C)cc5N=C34)ccc2n1 [BPN-0027490]
Ki [1]: 0.41 µM
Photostability 4 hours [2]: 80.8%
Photostability 24 hours [2]: 6.8%
Photostability Dark (24 h) [2]: 98.5%
Ratio CMMII:NMII Ki/EC50 [3]: NMII-sel

Cc1nc2cc(N3CC[C@@]4(O)C(=O)c5cc(C)c(C)cc5N=C34)ccc2s1 [BPN-0027491]
Ki [1]: 0.68 µM
Photostability 4 hours [2]: 54.0%
Photostability 24 hours [2]: 6.7%
Photostability Dark (24 h) [2]: 97.1%
Ki [3]: 24 µM
Ratio CMMII:NMII Ki/EC50 [3]: 10.4

Cc1cc2c(cc1C)C(=O)[C@]1(O)CCN(c3ccc4nc(C#N)ccc4c3)C1=N2 [BPN-0027492]
Ki [1]: 2.6 µM
Photostability 4 hours [2]: 95.1%
Photostability 24 hours [2]: 66.9%
Photostability Dark (24 h) [2]: >99%
Ratio CMMII:NMII Ki/EC50 [3]: NMII-sel

Cc1ccc2c(c1)C(=O)[C@]1(O)CCN(c3ccc4nc(N)ccc4c3)C1=N2 [BPN-0027494]
Ki [1]: 4.7 µM
Photostability 4 hours [2]: 63.5%
Photostability 24 hours [2]: <1.0%
Photostability Dark (24 h) [2]: 88.4%
Ratio CMMII:NMII Ki/EC50 [3]: NMII-sel

Cc1cc2c(cc1C)C(=O)[C@]1(O)CCN(c3ccc4nnsc4c3)C1=N2 [BPN-0028550]
Ki [1]: 9.4 µM
Photostability 4 hours [2]: 92.7%
Photostability 24 hours [2]: 77.6%
Photostability Dark (24 h) [2]: 89.4%
Ki [3]: 70 µM
Ratio CMMII:NMII Ki/EC50 [3]: 7.5

Cc1cc2c(cc1C)C(=O)[C@]1(O)CCN(c3ccc4c(c3)OCCN4)C1=N2 [BPN-0028552]
Ki [1]: 2.5 µM
Photostability 4 hours [2]: 87.7%
Photostability 24 hours [2]: 62.2%
Photostability Dark (24 h) [2]: 91.8%
Ki [3]: 26 µM
Ratio CMMII:NMII Ki/EC50 [3]: 21.7
